Results as given in US7855290B2, “Pyridine derivatives and pyrimidine derivatives (3)” (Eisai R&D Management Co., Ltd., priority 2005, dated 2010).

Assays:
[1] = target: T1, His6-HGFR (HGFR cytoplasmic domain) (Homo sapiens, UniProt P08581); test: Inhibitory activity against HGFR tyrosine kinase activity (HTRF); type: biochemical; conditions: biotin-poly(GT), ATP, 30° C. 10 min
T1 construct: made in house; host or cells: Sf9 insect cells (Spodoptera frugiperda), baculovirus, pFastBac-HT vector
Summary of the method: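 Sf9-expressed, Ni-NTA-purified N-terminal His6-tagged HGFR cytoplasmic domain (from Lys974), 30 ng, phosphorylates 250 ng biotin-poly(GT) in Hepes pH 7.4 with MgCl2, MnCl2 and Na3VO4. Reaction started with 4 μM ATP stock, run 10 min at 30° C, stopped with EDTA. Phosphotyrosine is detected by HTRF.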

[2] = tested on: Human gastric cancer cells (MKN-45); test: Inhibitory activity against the proliferation of human gastric cancer cells (MKN-45); type: cell-based; conditions: 72 h, MKN-45, 1% FBS RPMI1640, 3 days, Cell Counting Kit-8
Summary of the method: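 MKN-45 cells seeded overnight in RPMI1640 with 1% FBS, then exposed to compound for 3 days at 37° C, 5% CO2. Viability read with CCK-8 after about 1.5 hrs, absorbance at 450 nm (reference 660 nm).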

T1 sequence (P08581 956-1390 limits assumed): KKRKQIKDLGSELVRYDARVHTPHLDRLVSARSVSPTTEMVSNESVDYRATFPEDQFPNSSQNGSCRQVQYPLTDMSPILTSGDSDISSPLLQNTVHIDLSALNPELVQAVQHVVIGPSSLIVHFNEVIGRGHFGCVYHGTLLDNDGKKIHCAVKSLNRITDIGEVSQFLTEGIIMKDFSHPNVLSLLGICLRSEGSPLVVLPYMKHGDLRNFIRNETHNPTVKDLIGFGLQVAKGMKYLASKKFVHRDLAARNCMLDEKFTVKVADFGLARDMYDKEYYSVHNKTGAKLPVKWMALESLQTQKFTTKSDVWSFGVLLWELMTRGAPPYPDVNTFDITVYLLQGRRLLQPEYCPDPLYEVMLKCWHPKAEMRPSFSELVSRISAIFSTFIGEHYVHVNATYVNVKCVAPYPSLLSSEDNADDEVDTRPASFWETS

## COC1CN(C(=O)Nc2cc(Oc3ccc(NC(=O)C4(C(=O)Nc5ccc(F)cc5)CC4)c(F)c3)ccn2)C1 [Example 78, N-[2-Fluoro-4-[(2-{[(3-methoxyazetidin-1-yl)carbonyl]amino}pyridin-4-yl)oxy]phenyl}-N′-(4-fluorophenyl)cyclopropane-1,1-dicarboxamide]
[1]
  IC50: 0.014 µM
[2]
  IC50: 0.012 µM

## CN(C)CCN1CCN(C(=O)Nc2cc(Oc3ccc(NC(=O)C4(C(=O)Nc5ccc(F)cc5)CC4)cc3F)ccn2)CC1 [Example 7, N-[4-({2-[({4-[2-(Dimethylamino)ethyl]piperazin-1-yl}carbonyl)amino]pyridin-4-yl}oxy)-3-fluorophenyl]-N′-(4-fluorophenyl)cyclopropane-1,1-dicarboxamide]
[1]
  IC50: 0.051 µM
[2]
  IC50: 0.018 µM

## CN1CCC(N(C)C(=O)Nc2cc(Oc3ccc(NC(=O)C4(C(=O)Nc5ccc(F)cc5)CC4)cc3F)ccn2)CC1 [Example 1, N-(3-Fluoro-4-{[2-({[methyl(1-methylpiperidin-4-yl)amino]carbonyl}amino)pyridin-4-yl]oxy}phenyl)-N′-(4-fluorophenyl)cyclopropane-1.1-dicarboxamide]
[1]
  IC50: 0.066 µM
[2]
  IC50: 0.013 µM

## O=C(Nc1cc(Oc2ccc(NC(=O)C3(C(=O)Nc4ccc(F)cc4)CC3)cc2)ccn1)N1CCCC1 [Example 69, N-(4-Fluorophenyl)-N′-[4-({2-[(pyrrolidin-1-ylcarbonyl)amino]pyridin-4-yl}oxy)phenyl]cyclopropane-1,1-dicarboxamide]
[1]
  IC50: 0.031 µM
[2]
  IC50: 0.077 µM

## O=C(Nc1cc(Oc2ccc(NC(=O)C3(C(=O)Nc4ccc(F)cc4)CC3)cc2F)ccn1)N1CCC(CN2CCC2)CC1 [Example 26, N-(4-{[2-({[4-(Azetidin-1-ylmethyl)piperidin-1-yl]carbonyl}amino)pyridin-4-yl]oxy}-3-fluorophenyl)-N′-(4-fluorophenyl)cyclopropane-1,1-dicarboxamide]
[1]
  IC50: 0.058 µM
[2]
  IC50: 0.019 µM

## O=C(Nc1cc(Oc2cc(F)c(NC(=O)C3(C(=O)Nc4ccc(F)cc4)CC3)cc2F)ncn1)N1CC(CO)C1 [Example 99, N-(2,5-Difluoro-4-{[4-({[3-(hydroxymethyl)azetidin-1-yl]carbonyl}amino)pyrimidin-6-yl]oxy}phenyl)-N′-(4-fluorophenyl)cyclopropane-1,1-dicarboxamide]
[1]
  IC50: 0.033 µM
[2]
  IC50: 0.018 µM

## O=C(Nc1cc(Oc2ccc(NC(=O)C3(C(=O)Nc4ccc(F)cc4)CC3)cc2F)ccn1)N1CCC(N2CCC2)CC1 [Example 11, N-{4-[(2-{[(4-Azetidin-1-ylpiperidin-1-yl)carbonyl]amino}pyridin-4-yl)oxy]-3-fluorophenyl}-N′-(4-fluorophenyl)cyclopropane-1,1-dicarboxamide]
[1]
  IC50: 0.046 µM
[2]
  IC50: 0.034 µM

## O=C(Nc1cc(Oc2ccc(NC(=O)C3(C(=O)Nc4ccc(F)cc4)CC3)c(F)c2)ccn1)N1CCC(N2CCCC2)CC1 [Example 4, N-(4-Fluorophenyl)-N′-{2-fluoro-4-[(2-{[(4-pyrrolidin-1-ylpiperidin-1-yl)carbonyl]amino}pyridin-4-yl)oxy]phenyl}cyclopropane-1,1-dicarboxamide]
[1]
  IC50: 0.045 µM
[2]
  IC50: 0.021 µM

## CN(C)CCN1CCN(C(=O)Nc2cc(Oc3ccc(NC(=O)C4(C(=O)Nc5ccc(F)cc5)CC4)cc3)ccn2)CC1 [Example 30, N-[4-({2-[({4-[2-(Dimethylamino)ethyl]piperazin-1-yl}carbonyl)amino]pyridin-4-yl}oxy)phenyl]-N′-(4-fluorophenyl)cyclopropane-1,1-dicarboxamide]
[1]
  IC50: 0.044 µM
[2]
  IC50: 0.039 µM
